Source: US9273067B2, “Pyrazolopyrimidine macrocycles as inhibitors of human immunodeficiency virus replication” (BRISTOL-MYERS SQUIBB COMPANY, priority 2014, dated 2016)
pEC50: −log10 of the molar value. Where two headings read alike, the source gives them in different places.

Tested on: NL-RLuc virus (recombinant HIV NL4-3 with Renilla Luciferase) in MT-2 cells
Assay: Inhibition of HIV replication (NL-RLuc virus in MT-2 cells, luciferase readout)
Type: cell-based, human immunodeficiency virus (HIV)
From the text: Inhibition of HIV Replication:
A recombinant NL-RLuc proviral clone was constructed in which a section of the nef gene from NL4-3 was replaced with the Renilla Luciferase gene. This virus is fully infectious and can undergo multiple cycles of replication in cell culture. In addition, the luciferous reporter provides a simple and easy method for quantitating the extent of virus growth and consequently, the antiviral activity of test compounds. The plasmid pNLRLuc contains the proviral NL-Rluc DNA cloned into pUC 18 at the PvuII site. The NL-RLuc virus was prepared by transfection of 293T cells with the plasmid pNLRLuc. Transfections were performed using the LipofectAMINE PLUS kit from Invitrogen (Carlsbad, Calif.) according to the manufacturer and the virus generated was titered in MT-2 cells. For susceptibility analyses, the titrated virus was used to infect MT-2 cells in the presence of compound, and after 5 days of incubation, cells were processed and quantitated for virus growth by the amount of expressed luciferase. Assay media was RPMI 1640 supplemented with 10% heat inactivated fetal bovine serum (FBS), 100 units/ml penicillin G/100 units/ml streptomycin, 10 mM HEPES buffer pH 7.55 and 2 mM L-glutamine. The results from at least 2 experiments were used to calculate the EC50 values. Luciferase was quantitated using the Dual Luciferase kit from Promega (Madison, Wis.). Susceptibility of viruses to compounds was determined by incubation in the presence of serial dilutions of the compound. The 50% effective concentration (EC50) was calculated by using the exponential form of the median effect equation where (Fa)=1/[1+(ED50/drug conc.)^m] (Johnson V A, Byington R T. Infectivity Assay. In Techniques in HIV Research. ed. Aldovini A, Walker B D. 71-76. New York: Stockton Press. 1990).

[1] = MT2, 120 h, NL-RLuc virus infecting MT-2 cells, 5 days of incubation, 10% FBS, luciferase quantitation, at least 2 experiments
[2] = NL-RLuc virus infecting MT-2 cells, 5 days of incubation, 10% FBS, luciferase quantitation, at least 2 experiments, read-out: EC50

Structure (SMILES)	pEC50 [1]	further results
Cc1ccc2c(c1)O[C@@H](C)CCCCOC1(C)CCN(CC1)c1c([C@H](OC(C)(C)C)C(=O)O)c(C)nc3cc(nn13)CO[C@H]2C (single isomer, unassigned) [Example 55]	8.15	
Cc1ccc2c(c1)O[C@@H](C)CCCCOC1(C)CCN(CC1)c1c([C@H](OC(C)(C)C)C(=O)O)c(C)nc3cc(nn13)CO[C@@H]2C (single isomer, unassigned) [Example 56]	8.10	
Cc1nc2cc3nn2c(c1[C@H](OC(C)(C)C)C(=O)O)N1CCC(C)(CC1)OCC=CCOCc1cn(nn1)C3 [Example 1, (2S)-2-(tert-Butoxy)-2-[4,22-dimethyl-16,21-dioxa-1,5,7,8,11,12,13-heptaazapentacyclo[20.2.2.1^6,^9.1^11,^14.0^2,^7]octacosa-2,4,6(28),8,12,14(27),18-heptaen-3-yl]acetic acid]	5.60	
Cc1nc2cc3nn2c(c1[C@H](OC(C)(C)C)C(=O)O)N1CCC(C)(CC1)OCCCCOCc1cn(nn1)C3 [Example 2, (2S)-2-(tert-Butoxy)-2-{4,22-dimethyl-16,21-dioxa-1,5,7,8,11,12,13-heptaazapentacyclo[20.2.2.1^6,^9.1^11,^14.0^2,^7]octacosa-2,4,6(28),8,12,14(27)-hexaen-3-yl}acetic acid]	5.57	
Cc1nc2cc3nn2c(c1[C@H](OC(C)(C)C)C(=O)O)N1CCC(C)(CC1)OC=CCCOC(C)(C)c1cn(nn1)C3 [Example 3, (2S)-2-(tert-Butoxy)-2-[4,15,15,22-tetramethyl-16,21-dioxa-1,5,7,8,11,12,13-heptaazapentacyclo[20.2.2.1^6,^9.1^11,^14.0^2,^7]octacosa-2,4,6(28),8,12,14(27),19-heptaen-3-yl]acetic acid]		pEC50 [2]: 6.60
Cc1nc2cc3nn2c(c1[C@H](OC(C)(C)C)C(=O)O)N1CCC(C)(CC1)OCCC=COC(C)(C)c1cn(nn1)C3 [Example 4, (2S)-2-(tert-Butoxy)-2-[4,15,15,22-tetramethyl-16,21-dioxa-1,5,7,8,11,12,13-heptaazapentacyclo[20.2.2.1^6,^9.1^11,^14.0^2,^7]octacosa-2,4,6(28),8,12,14(27),17-heptaen-3-yl]acetic acid]		pEC50 [2]: 6.60
Cc1nc2cc3nn2c(c1[C@H](OC(C)(C)C)C(=O)O)N1CCC(C)(CC1)OCCCCOCc1ccccc1-c1cn(nn1)C3 [Example 5, (2S)-2-(tert-Butoxy)-2-{4,28-dimethyl-22,27-dioxa-1,5,7,8,11,12,13-heptaazahexacyclo[26.2.2.1^6,^9.1^11,^14.0^2,^7.0^15,^20]tetratriaconta-2,4,6(34),8,12,14(33),15(20),16,18-nonaen-3-yl}acetic acid]	7.35	
Cc1nc2cc3nn2c(c1[C@H](OC(C)(C)C)C(=O)O)N1CCC(C)(CC1)OCCCCOc1cccc(c1)-c1cn(nn1)C3 [Example 6, (2S)-2-(tert-Butoxy)-2-{4,26-dimethyl-20,25-dioxa-1,5,7,8,11,12,13-heptaazahexacyclo[24.2.2.1^6,^9.1^11,^14.1^15,^19.0^2,^7]tritriaconta-2,4,6(33),8,12,14(32),15(31),16,18-nonaen-3-yl}acetic acid]	7.10	
Cc1nc2cc3nn2c(c1[C@H](OC(C)(C)C)C(=O)O)N1CCC(C)(CC1)OC=CCCOC1(CCCCC1)c1cn(nn1)C3 [Example 7, (2S)-2-(tert-Butoxy)-2-[4′,22′-dimethyl-16′,21′-dioxa-1′,5′,7′,8′ 11′,12′,13′-heptaazaspiro[cyclohexane-1,15′-pentacyclo[20.2.2.1^6,^9.1^11,^14.0^2,^7]octacosane]-2′,4′,6′(28′),8′,12′,14′(27′),19′-heptaen-3′-yl]acetic acid]		pEC50 [2]: 6.87
Cc1nc2cc3nn2c(c1[C@H](OC(C)(C)C)C(=O)O)N1CCC(C)(CC1)OCCCCOC1(CCCCC1)c1cn(nn1)C3 [Example 8, (2S)-2-(tert-Butoxy)-2-{4′,22′-dimethyl-16′,21′-dioxa-1′,5′,7′,8′,11′,12′,13′-heptaazaspiro[cyclohexane-1,15′-pentacyclo[20.2.2.1^6,^9.1^11,^14.0^2,^7]octacosane]-2′,4′,6′(28′),8′,12′,14′(27′)-hexaen-3′-yl}acetic acid]	6.95	
Cc1nc2cc3nn2c(c1[C@H](OC(C)(C)C)C(=O)O)N1CCC(C)(CC1)OCCCCOC(C(C)C)c1cn(nn1)C3 (stereo partly drawn) [Example 10, (2S)-2-(tert-Butoxy)-2-[4,22-dimethyl-15-(propan-2-yl)-16,21-dioxa-1,5,7,8,11,12,13-heptaazapentacyclo[20.2.2.1^6,^9.1^11,^14.0^2,^7]octacosa-2,4,6(28),8,12,14(27)-hexaen-3-yl]acetic acid]	6.60	
Cc1nc2cc3nn2c(c1[C@H](OC(C)(C)C)C(=O)O)N1CCC(C)(CC1)OCCCCOC(C(C)C)c1cn(nn1)C3 (stereo partly drawn) [Example 11, (2S)-2-(tert-Butoxy)-2-[4,22-dimethyl-15-(propan-2-yl)-16,21-dioxa-1,5,7,8,11,12,13-heptaazapentacyclo[20.2.2.1^6,^9.1^11,^14.0^2,^7]octacosa-2,4,6(28),8,12,14(27)-hexaen-3-yl]acetic acid]		pEC50 ({}): 6.69
Cc1nc2cc3nn2c(c1[C@H](OC(C)(C)C)C(=O)O)N1CCC(C)(CC1)OCCCCOC(CC(C)C)c1cn(nn1)C3 (stereo partly drawn) [Example 12, (2S)-2-(tert-Butoxy)-2-[4,22-dimethyl-15-(2-methylpropyl)-16,21-dioxa-1,5,7,8,11,12,13-heptaazapentacyclo[20.2.2.1^6,^9.1^11,^14.0^2,^7]octacosa-2,4,6(28),8,12,14(27)-hexaen-3-yl]acetic acid]	6.87	
Cc1nc2cc3nn2c(c1[C@H](OC(C)(C)C)C(=O)O)N1CCC(C)(CC1)OCCCCOC(CC(C)C)c1cn(nn1)C3 (stereo partly drawn) [Example 13, (2S)-2-(tert-Butoxy)-2-[4,22-dimethyl-15-(2-methylpropyl)-16,21-dioxa-1,5,7,8,11,12,13-heptaazapentacyclo[20.2.2.1^6,^9.1^11,^14.0^2,^7]octacosa-2,4,6(28),8,12,14(27)-hexaen-3-yl]acetic acid]		pEC50 ({}): 6.91
Cc1nc2cc3nn2c(c1[C@H](OC(C)(C)C)C(=O)O)N1CCC(C)(CC1)OCC=CCc1ccccc1C(=O)NC3 [Example 14, (2S)-2-(tert-Butoxy)-2-[4,24-dimethyl-12-oxo-23-oxa-1,5,7,8,11-pentaazapentacyclo[22.2.2.1^6,^9.0^2,^7.0^13,^18]nonacosa-2,4,6(29),8,13(18),14,16,20-octaen-3-yl]acetic acid]	7.35	
Cc1nc2cc3nn2c(c1[C@H](OC(C)(C)C)C(=O)O)N1CCC(C)(CC1)OCCCCc1ccccc1C(=O)NC3 [Example 15, (2S)-2-(tert-Butoxy)-2-{4,24-dimethyl-12-oxo-23-oxa-1,5,7,8,11-pentaazapentacyclo[22.2.2.1^6,^9.0^2,^7.0^13,^18]nonacosa-2,4,6(29),8,13(18),14,16-heptaen-3-yl}acetic acid]	6.92	
Cc1nc2cc3nn2c(c1[C@H](OC(C)(C)C)C(=O)O)N1CCC(C)(CC1)OCC=CCOc1ccccc1CC(=O)NC3 [Example 16, (2S)-2-(tert-Butoxy)-2-[4,26-dimethyl-12-oxo-20,25-dioxa-1,5,7,8,11-pentaazapentacyclo[24.2.2.1^6,^9.1^2,^7.0^14,^19]hentriaconta-2,4,6(31),8,14(19),15,17,22-octaen-3-yl]acetic acid]		pEC50 [2]: 7.68
Cc1nc2cc3nn2c(c1[C@H](OC(C)(C)C)C(=O)O)N1CCC(C)(CC1)OCCCCOc1ccccc1CC(=O)NC3 [Example 17, (2S)-2-(tert-Butoxy)-2-{4,26-dimethyl-12-oxo-20,25-dioxa-1,5,7,8,11-pentaazapentacyclo[24.2.2.1^6,^9.1^2,^7.0^14,^19]hentriaconta-2,4,6(31),8,14(19),15,17-heptaen-3-yl}acetic acid]	7.62	
Cc1cc(CN2CC=CCOC3(C)CCN(CC3)c3c([C@H](OC(C)(C)C)C(=O)O)c(C)nc4cc(nn34)CNC(=O)C2=O)ccc1F [Example 18, (2S)-2-(tert-Butoxy)-2-[14-[(4-fluoro-3-methylphenyl)methyl]-4,20-dimethyl-12,13-dioxo-19-oxa-1,5,7,8,11,14-hexaazatetracyclo[18.2.2.1^6,^9.0^2,^7]pentacosa-2,4,6(25),8,16-pentaen-3-yl]acetic acid]	6.91	
Cc1cc(CN2CCCCOC3(C)CCN(CC3)c3c([C@H](OC(C)(C)C)C(=O)O)c(C)nc4cc(nn34)CNC(=O)C2=O)ccc1F [Example 19, (2S)-2-(tert-Butoxy)-2-{14-[(4-fluoro-3-methylphenyl)methyl]-4,20-dimethyl-12,13-dioxo-19-oxa-1,5,7,8,11,14-hexaazatetracyclo[18.2.2.1^6,^9.0^2,^7]pentacosa-2,4,6(25),8-tetraen-3-yl}acetic acid]	7.47	
Cc1nc2cc3nn2c(c1[C@H](OC(C)(C)C)C(=O)O)N1CCC(C)(CC1)OCC/C=C\c1ccccc1OC3 [Example 20]		pEC50 [2]: 6.98
